Data from US20220143194A1, “SELENIUM ANTIBODY CONJUGATES” (priority 2020, published 2022).
Non-standard residues stand in square brackets, D forms with d. Residues, ends and D or L forms follow the SMILES beside them. *: point of attachment. Dolaproine = CO[C@@H]([C@@H]1CCCN1)[C@@H](C)C(=O)O; Dil = CC[C@H](C)[C@H](NC)[C@@H](CC(=O)O)OC; X1 = C[C@@H](N*)[C@@H](O)c1ccccc1; NMeV = CN[C@H](C(=O)O)C(C)C

How the values were obtained:
SKBR3 (Her2+) cells = assay: In vitro cytotoxicity assay (CCK8 cell viability), SKBR3 (Her2+) cells; assay type: cell-based
Method: (§1) The ability of various antibody-drug conjugates and naked payloads to kill antigen-expressing tumor cells in vitro was assessed.
(§2) SKBR3 (Her2+) cells were seeded in 96 well plates at 8000 cells per well in complete growth media and grown overnight. For cell viability curves, serially diluted conjugates or naked payloads were added to the cells at final concentrations ranging from 100 nM to 5 pM and incubated for 3 days. NCI H1975 (Her2−) cells were run as negative controls using similar conditions. To measure viability, cells were incubated with CCK8 (Dojindo) for the final 2 hours and the absorbance at 450 nm (OD450) was determined on a Victor (Perkin Elmer). Background OD450 levels determined from digitonin (40 nM) treated cells were subtracted from all wells and viability is expressed as a percentage of the untreated controls. IC50 values were determined from a four-parameter logistic equation over a 10-point response curve (GraphPad Prism). […] The interchain disulfide conjugates had similar IC50 values as the transglutaminase site-specific selenocystamine conjugates. […] For comparison, the mc-vc-PAB-MMAE interchain disulfide conjugated molecules were produced according to Doronina, S. O. et al., Nat. Biotechnol., 2003, 21, 778.

NCI H1975 (Her2−) cells = assay: In vitro cytotoxicity assay (CCK8 cell viability), NCI H1975 (Her2−) negative control cells; assay type: cell-based; settings: 3 days incubation
Method: as §1, §2

In the case of `CC[C@H](C)[C@@H]([C@@H](CC(=O)N1CCC[C@H]1[C@H](OC)[C@@H](C)C(=O)N[C@H](C)[C@@H](O)c1ccccc1)OC)N(C)C(=O)[C@@H](NC(=O)[C@@H](NC)C(C)C)C(C)C` [MMAE, monomethyl auristatin E] (H-[NMeV]V[Dil][Dolaproine]-X1), the IC50 (SKBR3 (Her2+) cells; Homo sapiens, SK-BR-3, 72 h) is reported as 0.191 nM, the “% Kill” value (SKBR3 (Her2+) cells; SK-BR-3 cells, 3 days incubation, CCK8 viability, concentrations 100 nM to 5 pM) is reported as 93.6% and the “% Kill” value (NCI H1975 (Her2−) cells; concentrations 100 nM to 5 pM) is reported as 100%. For the same molecule, the IC50 (NCI H1975 (Her2−) cells; Homo sapiens, 72 h, IC50 corrected for payload equivalents) was 0.405 nM.
